From US20180015167A1, “CROSSLINKABLE TREHALOSE FOR THE COVALENT INCORPORATION IN HYDROGELS AND METHODS OF USE” (INVIVO THERAPEUTICS CORPORATION, priority 2013, published 2018) come the findings set out here.

This series can be described thus: Solubility of hydrogel precursors in water / aqueous buffer. Format: physicochemical. Here is the method: Hydrogels formed by mixing trehalose diacrylate and thiol-containing 4-arm PEG of molecular weight 5000 (4arm-PEG5k-SH). Briefly, trehalose diacrylate was dissolved in PBS (pH7.4, 1.06 mM potassium phosphate monobasic, 150 mM sodium chloride, 2.97 mM sodium phosphate dibasic) to prepare a trehalose-containing precursor solution at a concentration of 50 mg/ml. 9.42 mg 4arm-PEG5k-SH (0.0075 mmol thiols) was dissolved in 66.1 μl PBS and the solution was mixed with 33.9 μl trehalose diacrylate solution (1.7 mg, 1 molar equivalents based on thiols) and by vortexing.
Hydrogels formed by mixing ethoxylated-trimethylolpropan tri(thioglycolate) (TMPE-TGA), PEG diacrylate, and varying amounts of trehalose diacrylate. The following protocol has been used for gel formulation at the 150 μl scale. Briefly, TMPE-TGA was dissolved in PBS to prepare a 40 wt % thiol-containing precursor solution. Trehalose diacrylate was dissolved in PBS to prepare a trehalose-containing precursor solution at a concentration of 40 mg/ml. 10.875 mg PEG diacrylate of molecular weight 700 (PEGDA700, 0.75 molar equivalents based on thiols) was dissolved in 49.94 μl PBS and the solution was mixed with 58.3 μl trehalose diacrylate solution (2.33 mg, 0.25 molar equivalents based on thiols) and 41.8 μl TMPE-TGA solution (0.041 mmol thiols) by vortexing. […]

For the compound `C=CC(=O)OC[C@H]1O[C@H](O[C@H]2O[C@H](COC(=O)C=C)[C@@H](O)[C@H](O)[C@H]2O)[C@H](O)[C@@H](O)[C@@H]1O` [trehalose diacrylate], the “solubility in aqueous buffer” value (PBS pH7.4, room temperature) is on record as “soluble in aqueous buffer”. In addition, the water solubility result (PBS, room temperature) is given as “water soluble”.
